The values that follow come from article PMC9519442, “Genotype–phenotype correlations in WHIM syndrome: a systematic characterization of CXCR4^WHIM variants” (Genes and Immunity, 2022).

The target of test [1] is T1, CXCR4 E343K (Homo sapiens, UniProt P61073, E343K).
T1 construct: expressed in transfected cells; host or cells: K562
As to the kind of experiment: Ca2+ mobilization assay, K562 cells with stable CXCR4 expression. Particulars: K562, read-out: Emax (% inhibition) of mavorixafor, Ca2+ mobilization. The class given is cell-based. As for the experimental part: (§1) Stable K562 clones expressing CXCR4 (1 × 10^5 cells/well) were seeded in black 96-well plates with transparent bottom coated with poly-L-lysine (BioCoat®, Corning) and serum-starved for 24 h. Medium was removed and cells were loaded with 100 µl of fluo-4 AM (3 µM, Invitrogen) dye solution for 45 min at 37 °C. Dye solution was prepared by diluting fluo-4 powder in DMSO + 10% Pluronic F127 (Thermo Fisher Scientific, Waltham, Massachusetts, USA) to 3 mM and then preparing the final dilution in assay buffer (HBSS with Ca^2+ and Mg^2+, 20 mM HEPES, 0.375 g/l NaHCO3, 0.1% BSA + 0.77 g/L probenecid [Thermo Fisher Scientific]). Subsequently, 100 µl of assay buffer alone or assay buffer with compound dilutions was added and the plates were equilibrated in the plate reader for an additional 20 min at 37 °C. Jurkat cells (3 × 10^5 cells/well) were incubated with the Screen Quest Calbryte-520 Probenecid-Free and Wash-Free Calcium Assay Kit (AAT Bioquest, Sunnyvale, California, USA) according to manufacturer’s instructions. […] Raw traces were analyzed in SoftMax Pro 7 Software (Molecular Devices). The arbitrary units were calculated as the difference between maximal and minimal signal after treatment injection, normalized to the baseline signal before injection. Maximal effect (Emax) and half-maximal effective and inhibitory concentrations (EC50 and IC50, respectively) were calculated in Prism (GraphPad Software, San Diego, California, USA).
For orientation: A change in cytosolic calcium serves as a functional read-out for many receptors and channels.

The target of test [2] is T2, CXCR4 E343X (Homo sapiens, UniProt P61073).
T2 construct: expressed in transfected cells; host or cells: K562
Described as above. The class given is cell-based. Conditions: K562, read-out: Emax (% inhibition) of mavorixafor, Ca2+ mobilization. The method, then:
as §1

Test [3] addresses T3, CXCR4 G336X (Homo sapiens, UniProt P61073).
T3 construct: expressed in transfected cells; host or cells: K562
Described as above. It is filed as cell-based. Particulars: K562, read-out: Emax (% inhibition) of mavorixafor, Ca2+ mobilization. The method, then: as §1

For test [4], the target named is T4, CXCR4 L329Q fs*13 (Homo sapiens, UniProt P61073).
T4 construct: expressed in transfected cells; host or cells: K562
The test is described as above. The class given is cell-based. Conditions: K562, read-out: Emax (% inhibition) of mavorixafor, Ca2+ mobilization. As for the experimental part:
as §1

Test [5] deals with T5, CXCR4 R334X (Homo sapiens, UniProt P61073).
T5 construct: expressed in transfected cells; host or cells: K562
Described as above. It is filed as cell-based. Conditions: K562, read-out: Emax (% inhibition) of mavorixafor, Ca2+ mobilization. The method, then:
as §1

Test [6] has as its target T6, CXCR4 S319C fs*24 (Homo sapiens, UniProt P61073).
T6 construct: expressed in transfected cells; host or cells: K562
The description is as above. The class given is cell-based. Particulars: K562, read-out: Emax (% inhibition) of mavorixafor, Ca2+ mobilization. As for the experimental part:
as §1

The target of test [7] is T7, CXCR4 S324V fs*20 (Homo sapiens, UniProt P61073).
T7 construct: expressed in transfected cells; host or cells: K562
The test is described as above. Particulars: K562, read-out: Emax (% inhibition) of mavorixafor, Ca2+ mobilization. The class given is cell-based. As for the experimental part: as §1

In test [8] the target is T8, CXCR4 S338X (Homo sapiens, UniProt P61073).
T8 construct: expressed in transfected cells; host or cells: K562
The test is described as above. The class given is cell-based. Conditions: K562, read-out: Emax (% inhibition) of mavorixafor, Ca2+ mobilization. As for the experimental part: as §1

Test [9] addresses T9, CXCR4 S339C fs*4 (Homo sapiens, UniProt P61073).
T9 construct: expressed in transfected cells; host or cells: K562
Described as above. It is filed as cell-based. Conditions: K562, read-out: Emax (% inhibition) of mavorixafor, Ca2+ mobilization. As for the experimental part:
as §1

The target in test [10] is T10, CXCR4 S339F fs*6 (Homo sapiens, UniProt P61073).
T10 construct: expressed in transfected cells; host or cells: K562
The test is described as above. It is filed as cell-based. Particulars: K562, read-out: Emax (% inhibition) of mavorixafor, Ca2+ mobilization. The method, then: as §1

Test [11] addresses T11, CXCR4 S341P fs*25 (Homo sapiens, UniProt P61073).
T11 construct: expressed in transfected cells; host or cells: K562
The test is described as above. The class given is cell-based. Conditions: K562, read-out: Emax (% inhibition) of mavorixafor, Ca2+ mobilization. As for the experimental part:
as §1

Test [12] concerns the target T12, CXCR4 T318P fs*3 (Homo sapiens, UniProt P61073).
T12 construct: expressed in transfected cells; host or cells: K562
The description is as above. It is filed as cell-based. Particulars: K562, read-out: Emax (% inhibition) of mavorixafor, Ca2+ mobilization. As for the experimental part:
as §1

Test [13] concerns the target T13, CXCR4 V320E fs*23 (Homo sapiens, UniProt P61073).
T13 construct: expressed in transfected cells; host or cells: K562
The description is as above. Particulars: K562, read-out: Emax (% inhibition) of mavorixafor, Ca2+ mobilization. The class given is cell-based. As for the experimental part: as §1

For test [14], the target named is T14, WT CXCR4 (Homo sapiens, UniProt P61073).
T14 construct: cloned into pcDNA3.1(Hygro+) via NheI/EcoRV to give pcDNA3.1_CXCR4; expressed in transfected cells; host or cells: K562
The description is as above. It is filed as cell-based. Conditions: K562, read-out: Emax (% inhibition) of mavorixafor, Ca2+ mobilization. The method, then:
as §1

Test [15] deals with all CXCR4^WHIM variants (Homo sapiens, UniProt P61073). As to the kind of experiment: Ca2+ mobilization assay, K562 cells, pooled over variants. The class given is cell-based. Particulars: K562, read-out: Emax of mavorixafor, Ca2+ mobilization, range over variants. The method, then:
as §1, with “°C.” for “°C. Jurkat cells (3 × 10^5 cells/well) were incubated with the Screen Quest Calbryte-520 Probenecid-Free and Wash-Free Calcium Assay Kit (AAT Bioquest, Sunnyvale, California, USA) according to manufacturer’s instructions.”

Test [16] concerns the target CXCR4 (WT/WT, RX/WT, RX/RX) (Homo sapiens, UniProt P61073). As to the kind of experiment: Ligand binding inhibition assay (AF647-CXCL12), Jurkat cells, across all cell lines.
Experimental: Jurkat cells were washed once with assay buffer (HBSS + 20 mM HEPES buffer +0.2% BSA, pH 7.4) and then incubated for 15 min at room temperature with test compound diluted in assay buffer at dose-dependent concentrations. […] The cells were incubated for 30 min at room temperature. Thereafter, the cells were washed twice in assay buffer, fixed with 1% paraformaldehyde in PBS, and analyzed by flow cytometry (Cytoflex). […] The percentage of inhibition was calculated according to the formula: [1-((MFI-MFINC)/(MFIPC-MFINC))]*100 where MFI is the mean fluorescence intensity of cells in the presence of an inhibitor, MFINC is mean fluorescence intensity of cells in the absence of the ligand and MFIPC is mean fluorescence intensity of cells in the presence of the ligand alone.
For test [17], the target named is T15, R334X/R334X CXCR4 (RX/RX Jurkat cells) (Homo sapiens, UniProt P61073).
T15 construct: a cellular model of homozygous and heterozygous R334X CXCR4 in an endogenous locus; host or cells: Jurkat (E6-1, ATCC), CRISPR-Cas9 clones A3 and B5 (RX/RX)
As to the kind of experiment: ERK activation assay (phosphoflow p-T202/Y204 ERK), Jurkat cells. The class given is cell-based. Particulars: 10 nM CXCL12 for 5 min. As for the experimental part:
(§2) Stable K562 clones expressing CXCR4 or Jurkat cells were seeded in starvation medium in 96-well plates overnight. After treatment, the cells were fixed with fixation solution (eBioscience, Thermo Fisher Scientific, Waltham, Massachusetts, USA) for 10 min at room temperature, then permeabilized for 5 min with ice-cold methanol on ice followed by a washing step with wash/permeabilization solution (eBioscience, Thermo Fisher Scientific, Waltham, Massachusetts, USA). Cells were then stained with Alexa Fluor 647 Mouse Anti-ERK1/2 (Product code 612593, pT202/pY204, 1/10 dilution, BD Biosciences) and Alexa Fluor 488 Mouse anti-Akt (Product code 560404, pS473, 1/10 dilution, BD Biosciences) for 1 h at room temperature in the dark. Cells were then washed 2 times in wash/permeabilization solution and resuspended in flow buffer (HBSS with Ca^2+ and Mg^2+ + 0.1% BSA + 20 mM HEPES pH 7.4). Samples were measured via flow cytometry (CytoFLEX Flow Cytometer) and analyzed in FCS Express software. After gating cells based on the FCS/SSC, MFI of the respective staining was exported for further analysis.

Test [18] has as its target T16, R334X/WT CXCR4 (RX/WT Jurkat cells) (Homo sapiens, UniProt P61073).
T16 construct: cells endogenously expressing WT, R334X/WT or R334X/R334X CXCR4 at similar levels; endogenous in cells; host or cells: Jurkat E6-1 clone B2 (CRISPR-Cas9 edited, made at Applied StemCell)
The description is as above. It is filed as cell-based. Particulars: 10 nM CXCL12 for 5 min. The method, then:
as §2

Test [19] addresses CXCR4 (WT/WT, RX/WT, RX/RX Jurkat cells) (Homo sapiens, UniProt P61073). As to the kind of experiment: ERK activation assay (phosphoflow), all Jurkat cell lines tested. Particulars: 40 nM, 200 nM or 1 µM mavorixafor, 10 nM CXCL12 for 5 min. The class given is cell-based. As for the experimental part:
as §2

For test [20], the system named is WT CXCR4 and CXCR4^WHIM variants. As to the kind of experiment: ERK activation assay (phosphoflow p-T202/Y204 ERK), K562 cells with stable CXCR4 expression. Conditions: 40 nM, 200 nM or 1 µM mavorixafor, 10 nM CXCL12 for 5 min. The class given is cell-based, human. The method, then:
as §2

For test [21] the test system is unchanged. Put plainly: AKT activation assay (phosphoflow p-S473 AKT), K562 cells with stable CXCR4 expression. Conditions: 40 nM, 200 nM or 1 µM mavorixafor, 10 nM CXCL12 for 5 min. The class given is cell-based, human. The method, then:
as §2

As a reminder, the Emax is the maximal effect, on the per cent scale that the assay sets.

T10 sequence (P61073 with tags, fused parts or gaps, stated change not applied): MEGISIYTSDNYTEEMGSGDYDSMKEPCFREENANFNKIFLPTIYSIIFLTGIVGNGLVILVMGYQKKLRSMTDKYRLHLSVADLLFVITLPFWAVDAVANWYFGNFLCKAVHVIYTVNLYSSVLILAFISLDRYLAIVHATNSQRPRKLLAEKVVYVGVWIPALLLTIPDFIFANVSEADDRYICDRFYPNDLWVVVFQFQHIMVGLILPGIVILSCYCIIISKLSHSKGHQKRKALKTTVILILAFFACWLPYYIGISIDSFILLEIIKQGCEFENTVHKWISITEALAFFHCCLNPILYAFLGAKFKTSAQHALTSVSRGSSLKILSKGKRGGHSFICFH
T2 sequence (P61073 1-342 limits assumed): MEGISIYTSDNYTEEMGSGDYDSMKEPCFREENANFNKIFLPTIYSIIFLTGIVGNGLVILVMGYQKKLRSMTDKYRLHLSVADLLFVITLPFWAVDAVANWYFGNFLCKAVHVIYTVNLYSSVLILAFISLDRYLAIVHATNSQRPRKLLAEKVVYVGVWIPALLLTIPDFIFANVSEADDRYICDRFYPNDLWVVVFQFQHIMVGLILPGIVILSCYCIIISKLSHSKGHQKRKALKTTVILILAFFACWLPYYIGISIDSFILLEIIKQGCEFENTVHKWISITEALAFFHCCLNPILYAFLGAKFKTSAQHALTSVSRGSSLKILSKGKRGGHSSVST
T4 sequence (P61073 with tags, fused parts or gaps, stated change not applied): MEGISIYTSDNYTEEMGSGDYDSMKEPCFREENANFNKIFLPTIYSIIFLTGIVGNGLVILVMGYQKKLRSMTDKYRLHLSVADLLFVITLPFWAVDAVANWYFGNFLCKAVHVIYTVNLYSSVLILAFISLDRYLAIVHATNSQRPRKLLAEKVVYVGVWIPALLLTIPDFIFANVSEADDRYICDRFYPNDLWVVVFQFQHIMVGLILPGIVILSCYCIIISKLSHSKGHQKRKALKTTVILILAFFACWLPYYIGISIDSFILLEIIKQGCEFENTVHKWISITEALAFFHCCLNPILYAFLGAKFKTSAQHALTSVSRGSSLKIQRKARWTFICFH
T1 sequence (P61073 whole entry E343K): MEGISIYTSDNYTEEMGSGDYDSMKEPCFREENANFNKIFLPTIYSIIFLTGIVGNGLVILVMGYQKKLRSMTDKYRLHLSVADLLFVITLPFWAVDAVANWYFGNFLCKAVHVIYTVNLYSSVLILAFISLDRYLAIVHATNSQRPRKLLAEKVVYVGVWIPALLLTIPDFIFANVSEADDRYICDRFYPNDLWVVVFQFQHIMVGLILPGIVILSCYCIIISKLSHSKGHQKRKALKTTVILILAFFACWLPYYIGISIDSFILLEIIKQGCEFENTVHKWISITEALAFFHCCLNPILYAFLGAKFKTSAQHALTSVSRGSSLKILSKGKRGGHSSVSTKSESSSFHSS
T3 sequence (P61073 1-335 limits assumed): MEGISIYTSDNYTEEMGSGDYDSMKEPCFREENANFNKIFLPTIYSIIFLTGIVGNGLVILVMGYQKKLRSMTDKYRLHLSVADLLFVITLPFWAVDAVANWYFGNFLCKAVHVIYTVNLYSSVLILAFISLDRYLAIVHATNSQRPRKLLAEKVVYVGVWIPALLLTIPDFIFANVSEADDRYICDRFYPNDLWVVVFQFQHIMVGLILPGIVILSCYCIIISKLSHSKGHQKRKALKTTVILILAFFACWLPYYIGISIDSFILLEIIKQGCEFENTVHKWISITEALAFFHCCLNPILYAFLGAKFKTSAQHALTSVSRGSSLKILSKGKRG
T12 sequence (P61073 with tags, fused parts or gaps, stated change not applied): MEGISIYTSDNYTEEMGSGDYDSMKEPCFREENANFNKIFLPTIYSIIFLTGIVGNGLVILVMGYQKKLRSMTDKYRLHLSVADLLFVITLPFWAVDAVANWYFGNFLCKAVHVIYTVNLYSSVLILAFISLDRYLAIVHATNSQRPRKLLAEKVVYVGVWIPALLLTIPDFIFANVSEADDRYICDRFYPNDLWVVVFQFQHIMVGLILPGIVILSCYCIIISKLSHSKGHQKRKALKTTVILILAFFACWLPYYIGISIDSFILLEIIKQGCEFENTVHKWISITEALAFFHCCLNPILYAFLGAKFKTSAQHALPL
T16 sequence (P61073 1-333 limits assumed): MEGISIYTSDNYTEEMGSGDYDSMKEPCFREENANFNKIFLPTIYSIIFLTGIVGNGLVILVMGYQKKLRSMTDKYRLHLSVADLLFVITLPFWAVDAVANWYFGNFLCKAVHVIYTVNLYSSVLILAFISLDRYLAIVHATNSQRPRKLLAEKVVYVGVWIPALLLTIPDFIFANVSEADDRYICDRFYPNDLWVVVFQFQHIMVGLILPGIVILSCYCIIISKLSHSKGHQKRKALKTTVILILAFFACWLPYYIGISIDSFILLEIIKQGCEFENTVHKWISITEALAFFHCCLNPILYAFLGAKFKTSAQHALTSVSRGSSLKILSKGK
T16 sequence (P61073 whole entry): as the sequence (P61073 whole entry E343K) above, with K343E counted along it
T15 sequence (P61073 1-333 limits assumed): as the sequence (P61073 1-333 limits assumed) above
T5 sequence (P61073 1-333 limits assumed): as above
CXCR4 (WT/WT, RX/WT, RX/RX Jurkat cells), sequence (P61073 1-333 limits assumed): as above
CXCR4 (WT/WT, RX/WT, RX/RX), sequence (P61073 1-333 limits assumed): as above
T9 sequence (P61073 with tags, fused parts or gaps, stated change not applied): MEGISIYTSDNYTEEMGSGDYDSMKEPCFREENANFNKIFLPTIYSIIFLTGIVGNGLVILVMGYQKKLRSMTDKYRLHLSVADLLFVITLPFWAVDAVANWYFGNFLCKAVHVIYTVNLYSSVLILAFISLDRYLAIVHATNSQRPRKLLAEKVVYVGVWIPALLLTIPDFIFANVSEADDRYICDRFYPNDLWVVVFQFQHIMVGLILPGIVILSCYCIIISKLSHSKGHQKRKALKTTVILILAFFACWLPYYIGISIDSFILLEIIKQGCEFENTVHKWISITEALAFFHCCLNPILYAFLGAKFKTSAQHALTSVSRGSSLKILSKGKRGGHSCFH
T14 sequence (P61073 whole entry): as the sequence (P61073 whole entry E343K) above, with K343E counted along it
T7 sequence (P61073 with tags, fused parts or gaps, stated change not applied): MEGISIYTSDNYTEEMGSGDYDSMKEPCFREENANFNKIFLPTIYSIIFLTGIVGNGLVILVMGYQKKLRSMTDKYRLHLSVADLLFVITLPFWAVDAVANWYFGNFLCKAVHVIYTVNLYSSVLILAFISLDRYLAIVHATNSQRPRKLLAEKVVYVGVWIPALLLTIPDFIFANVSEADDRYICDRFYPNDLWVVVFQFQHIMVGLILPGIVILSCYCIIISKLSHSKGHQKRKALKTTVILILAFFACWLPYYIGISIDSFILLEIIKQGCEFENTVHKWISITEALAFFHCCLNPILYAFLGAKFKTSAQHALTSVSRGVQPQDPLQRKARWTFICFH
T13 sequence (P61073 with tags, fused parts or gaps, stated change not applied): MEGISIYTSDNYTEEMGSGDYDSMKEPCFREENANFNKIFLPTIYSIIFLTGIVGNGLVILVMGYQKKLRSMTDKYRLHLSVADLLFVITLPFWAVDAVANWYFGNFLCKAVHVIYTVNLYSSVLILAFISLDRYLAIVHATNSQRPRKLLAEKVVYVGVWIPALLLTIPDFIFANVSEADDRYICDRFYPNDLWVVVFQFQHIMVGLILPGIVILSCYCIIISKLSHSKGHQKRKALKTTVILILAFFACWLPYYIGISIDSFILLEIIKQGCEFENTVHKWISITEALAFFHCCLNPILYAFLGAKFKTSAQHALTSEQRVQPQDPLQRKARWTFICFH
T11 sequence (P61073 with tags, fused parts or gaps, stated change not applied): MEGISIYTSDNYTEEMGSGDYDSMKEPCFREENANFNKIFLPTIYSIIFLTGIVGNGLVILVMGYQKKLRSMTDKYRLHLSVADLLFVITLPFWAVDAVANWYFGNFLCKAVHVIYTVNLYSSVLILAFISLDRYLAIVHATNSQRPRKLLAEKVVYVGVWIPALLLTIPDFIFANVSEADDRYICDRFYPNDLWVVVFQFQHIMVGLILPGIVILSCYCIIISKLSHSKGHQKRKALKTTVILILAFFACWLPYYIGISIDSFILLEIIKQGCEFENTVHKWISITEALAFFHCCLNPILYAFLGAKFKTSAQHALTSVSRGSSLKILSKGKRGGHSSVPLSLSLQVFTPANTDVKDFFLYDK
T8 sequence (P61073 1-337 limits assumed): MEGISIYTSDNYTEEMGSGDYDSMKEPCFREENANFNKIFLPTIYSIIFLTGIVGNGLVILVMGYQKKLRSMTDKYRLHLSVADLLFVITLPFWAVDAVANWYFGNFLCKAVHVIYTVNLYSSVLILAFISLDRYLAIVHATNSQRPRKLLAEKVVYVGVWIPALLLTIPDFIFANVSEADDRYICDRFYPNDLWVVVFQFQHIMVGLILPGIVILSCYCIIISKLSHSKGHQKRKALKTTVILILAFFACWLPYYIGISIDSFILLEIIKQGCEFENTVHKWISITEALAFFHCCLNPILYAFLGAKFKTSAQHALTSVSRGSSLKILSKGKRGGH
T6 sequence (P61073 with tags, fused parts or gaps, stated change not applied): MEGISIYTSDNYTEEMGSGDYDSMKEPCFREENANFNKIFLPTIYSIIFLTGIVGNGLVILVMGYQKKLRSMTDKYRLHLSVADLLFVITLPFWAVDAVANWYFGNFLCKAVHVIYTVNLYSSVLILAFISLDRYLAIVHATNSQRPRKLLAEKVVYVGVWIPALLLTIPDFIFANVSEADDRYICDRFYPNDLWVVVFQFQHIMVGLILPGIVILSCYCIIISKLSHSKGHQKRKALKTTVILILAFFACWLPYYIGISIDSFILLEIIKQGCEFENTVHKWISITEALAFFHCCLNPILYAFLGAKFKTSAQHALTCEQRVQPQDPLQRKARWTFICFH

As for `NCCCCN(Cc1nc2ccccc2[nH]1)[C@H]1CCCc2cccnc21` [mavorixafor], the Emax worked out at 66% in [1]; 90% in test [2]; 82% in test [3]; 51% in test [4]; 72% in test [5]; 76% in [6]. The Emax in test [7] worked out at 58%; in [8], 89%; in test [9] it was 77%; in test [10] it was 59%; in test [11], 57%; in test [12], 88%. In addition, the Emax in test [13] was 65%; in [14], 84%; in [15], 51 to 90%. In addition, the “Efficacy of inhibition of CXCL12 binding to CXCR4” value in [16] is on record as 100%. Also, the “Concentration that normalized the hyperactive ERK signaling” value in [17] was 200 nM; in test [18], 40 nM. The “Effect on CXCL12-stimulated ERK activation” value in test [19] was “inhibited”. Further, in [20], the “Effect on CXCL12-dependent ERK activation” value was “inhibited”. Moreover, the “Effect on CXCL12-dependent AKT activation” value in test [21] was “inhibited”.
